According to patent US20210393791A1, “COMBINATION TREATMENT WITH ANTI-CD123 ANTIBODY DRUG CONJUGATE AND PARP INHIBITOR” (Health Research, Inc., priority 2018, published 2021):

Tests used:
[1] = system: preclinical AML models; conditions: Portwood S et al, ASH 2016; cited from earlier work
[2] = system: primary CD123+ AML cells from patients with relapsed/refractory disease; assay: Short-term culture of primary relapsed/refractory AML patient samples; type: cell-based, human; conditions: single agent, in vitro
Description: (§1) CD123 expression on human AML cell lines (HEL, HL60, MV411, Molm13, EOL-1, THP-1, and Kasumi-1) was quantified by flow cytometry using QuantriBrite beads. AML cells were continuously cultured for 72-96 hours with varying doses of IMGN632 (range 100 pM-100 nM) and specific PARP inhibitors (range 100 pM-15 μM) alone and in combination. Cell viability was measured using a WST-8 colorimetric assay. Primary clinically annotated CD123+AML cells from patients with relapsed/refractory disease were obtained under IRB-approved protocols from the Roswell Park (Buffalo, N.Y.) Hematologic Procurement Shared Resource and cultured short-term in the presence of multiple cytokines plus IMGN632+/−PARP inhibitors. Apoptosis (Annexin V/PI), cell cycle, and DNA damage (H2AX) were evaluated by flow cytometry. Additive vs. synergistic effects were determined by combination indices using Compusyn software. PARP trapping was evaluated by Western blot analysis in nuclear lysates obtained from IMGN632+/−PARP inhibitors treated AML cells.

[3] = system: human AML cell lines; assay: AML cell line viability, WST-8 colorimetric assay; type: cell-based; conditions: 120 h, continuous single agent 5-day treatment, read-out: IC50, in vitro inhibition of AML cell line growth
Description: as §1, with “AML cells were continuously cultured for 72-96 hours with varying doses of IMGN632 (range 100 pM-100 nM) and specific PARP inhibitors (range 100 pM-15 μM) alone and in combination.” left out

| Compound | effect on activity of the CD33-targeted ADC IMGN779 [1] | activity against primary relapsed/refractory AML patient samples [2] | IC50 [3] [µM] |
| --- | --- | --- | --- |
| O=C(c1cc(Cc2n[nH]c(=O)c3ccccc23)ccc1F)N1CCN(C(=O)C2CC2)CC1 [olaparib] | synergistically enhance | single agent activity |  |
| Cn1ncnc1[C@H]1c2n[nH]c(=O)c3cc(F)cc(c23)N[C@@H]1c1ccc(F)cc1 [talazoparib] |  | single agent activity | 0.36 |
| C[C@]1(c2nc3c(C(N)=O)cccc3[nH]2)CCCN1 [veliparib] |  |  | 78 |
| IMGN632 |  | single agent activity |  |
